The text below walks through data of patent publication US20260284074A1, “ENT1 Inhibitors in Combination with Checkpoint Inhibitors” (iTeos Belgium SA, priority 2023, published 2026).

Entries after “also recorded” stand apart in the source; their conditions may differ.

What all share (format): cell-based
Experiment [1] relates to human T cells. The experiment is described as follows: T cell proliferation by CFSE dilution in the presence of ATP. As to conditions: Homo sapiens, read-out: IC50, restoration of T cell proliferation. As to the method: Human T cells were activated in the presence of 100 μM ATP and dilazep or Compound 1 and proliferation was monitored by CarboxyFluoroscein Succinimidyl Ester (CFSE) dilution. […] (See FIG. 27B.)

The target of another experiment is T1, ENT1 (Homo sapiens, UniProt Q99808).
T1 sequence (Q99808 1-456): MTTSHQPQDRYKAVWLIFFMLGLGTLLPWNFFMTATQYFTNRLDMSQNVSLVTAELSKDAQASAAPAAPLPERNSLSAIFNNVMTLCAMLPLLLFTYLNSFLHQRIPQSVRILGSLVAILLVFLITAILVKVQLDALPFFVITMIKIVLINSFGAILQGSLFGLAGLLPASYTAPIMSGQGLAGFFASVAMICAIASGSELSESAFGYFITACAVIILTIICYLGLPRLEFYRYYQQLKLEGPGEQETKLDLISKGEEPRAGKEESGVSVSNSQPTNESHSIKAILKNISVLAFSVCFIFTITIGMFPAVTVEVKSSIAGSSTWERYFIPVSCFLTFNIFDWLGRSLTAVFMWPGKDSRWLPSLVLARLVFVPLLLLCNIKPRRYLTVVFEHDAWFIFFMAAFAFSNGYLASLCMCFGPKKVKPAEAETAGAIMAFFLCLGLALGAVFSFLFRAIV
Nature of the experiment: ENT1 transport inhibition assay (uridine transport).

For experiment [2], the system named is tumor infiltrating T cells. Nature of the experiment: T cell proliferation in dissociated human tumor cell suspension cultures with ATP. As to conditions: 500 μM ATP; CD3/CD28 microbeads and IL-2; Compound 1 300 nM; anti-PD-1 10 μg/mL; 3 days. As to the method: Human tumors were dissociated, and cells were CFSE-labelled and stimulated with CD3/CD28 microbeads and IL-2 in the presence of 500 μM of ATP as a source of adenosine.
Human tumor pieces were rinsed with cold PBS and cut into 1 to 2 mm fragments with a scalpel blade and transferred into GentleMACS C tubes. Dissociation of the tissue was completed with the Tumor Dissociation kit (Miltenyi Biotec) according to the manufacturer's instruction. Briefly, 5 mL of dissociation solution—containing 200 μL of enzyme H, 20 μL of enzyme R and 25 μL of enzyme A and RPMI until 5 mL—was added per gram of tumor. The tube was placed in the gentleMACS dissociator and the 1st program was run. An incubation step of 30 minutes at 37° C. was applied with rotation (MACSmix tube rotator). After this incubation, a quick centrifugation (30×rcf, 1 min) was performed, the supernatant containing dissociated cells was collected in a new tube containing FBS (30% of the total volume with supernatant) and placed at 4° C. […] A short centrifugation was performed, the cells in supernatant were pooled with the 1st collection and filtered through a 100 μm cell strainer which was washed with 10 mL RPMI 10% FBS 2% P/S. After centrifugation at 350×rcf for 10 min, cells were resuspended in 20 mL RPMI 10% FBS 2% P/S and counted with a haemocytometer. […]

Experiment [3] deals with human T cells. Nature of the experiment: [3H]adenosine uptake in activated human T cells. As to conditions: Homo sapiens, T-cell; T cells activated 2 days in presence of compound, washed, [3H]adenosine uptake; read-out: IC50, inhibition of uptake of adenosine into human T cells. An excerpt:
Applicant observed that activated human T cells took up [3H]adenosine, and this uptake was reduced in the presence of the selective ENT1 inhibitor dilazep, confirming that ENT1 is the dominant transporter involved in adenosine uptake in T cells.
Human T cells were activated for 2 days in the presence of Compound 1 or dilazep. The cells were then washed and used in a [^3H]adenosine uptake experiment. […] (See FIG. 27A.)

Turning to `COc1cc(C(=O)O[C@@H]2CCCOc3cc(cc(OC)c3OC)C(=O)NCCCN3CCCN(CC2)CC3)cc(OC)c1OC` [Compound 1, (12R)-7^4,7^5-dimethoxy-6-oxo-8-oxa-5-aza-1(1,4)-diazepana-7(1,3)-benzenacyclotetradecaphane-12-yl 3,4,5-trimethoxybenzoate], the IC50 in the experiment with human T cells [1] amounted to 0.06 nM; on ENT1 (read-out: IC50, ENT1 inhibition (ENT1-mediated uridine transport)), 2.2 nM; with human T cells [3] it was 0.2 nM. The “Potency of inhibition of ENT1-mediated uridine transport (in words)” value on ENT1 is listed as “nanomolar potency”. In experiment [2], the “Rescue of T cell proliferation suppressed by ATP” value is reported as “restored; also recorded: partially reversed”.
